Paper PMC7221740, “Cyclic Synthetic Peroxides Inhibit Growth of Entomopathogenic Fungus Ascosphaera apis without Toxic Effect on Bumblebees” (Molecules, 2020)
≈ marks a conversion by molar mass, not a printed value.

Assays:
[1] = test system: A. apis; parameters: method as in PMID 30862950; conditions: ref [54]; cited from earlier work
[2] = test system: Ascosphaera apis; assay: Inhibition of radial growth of Ascosphaera apis mycelium in potato-saccharose agar; format: cell-based; conditions: 72 h; for inhibition at 30 µg/mL / EC50: Ascosphaera apis; for inhibition at 30 µg/mL / Mycelium Growth Inhibition (I), %: A. apis, concentration 30 mg/L, potato-saccharose agar, 25 °C; for inhibition at 30 µg/mL: read-out: Mycelium Growth Inhibition (I), %; for EC50: A. apis mycelium growth, read-out: EC50 (mg/L) ± SD, fungicidal activity
[3] = test system: A. apis; parameters: method as in PMID 22263693; conditions: ref [55]; read-out: IC50 against A. apis; cited from earlier work
[4] = test system: bumblebees Bombus terrestris L.; assay: Toxic effect on bumblebees (feeding with inverted sugar syrup); format: in vivo; conditions: concentration not given
Procedure: In the next step, we evaluated the toxicity of active peroxides 1–4, 6 towards bumblebees. Two approaches were used for this purpose. The first approach was a contact action of bumblebees with 30 mg/L solution of peroxide in water containing DMSO (5% vol.). The second approach was feeding of bumblebees with inverted sugar syrup containing peroxides 1–4, 6 (the concentration of peroxide was 30 mg/L) and DMSO (5% vol.). The mortality of bumblebees after their contact with solutions of peroxides 1–4, 6 was absent. […] However, after the consumption of sugar syrup containing difenoconazole or penconazole, the ability of bumblebees to fly was decreased by 1.4 times and 1.3 times, respectively (Figure 4). On average, bumblebees from the control group were in flight for 9 min 28 s. After the consumption of syrup with difenoconazole and penconazole (see Materials and methods), the time spent by insects in flight decreased to 6 min 36 s and 7 min 17 s, respectively.
Peroxide 1–4, 6 (0.3 mg or 3.0 mg) was added to 500 µL of DMSO, and the resulting solution was diluted with 60% inverted sugar syrup to 10 mL. After that, 30 mg/L or 300 mg/L solution of peroxide in inverted sugar syrup containing DMSO (5% vol.) was obtained. A solution of DMSO (500 µL) in 60% inverted sugar syrup was used as the control solution. […]

[5] = test system: bumblebees Bombus terrestris L.; assay: Ability of bumblebees to fly; format: in vivo; conditions: for Ability of bumblebees to fly in the contact action test: peroxides 30 mg/L in water with DMSO (5% vol.); for Decrease of the ability of bumblebees to fly after consumption of sugar syrup: feeding, versus control group
[6] = test system: bumblebees Bombus terrestris L.; assay: Toxic effect on bumblebees (contact action); conditions: concentration not given

| melting point [°C] | Compound | inhibition at 30 µg/mL [2] [%] | EC50 [2] [mg/L] | further results |
| --- | --- | --- | --- | --- |
| – | COc1ccc(C(=O)/C=C/c2ccc(O)cc2)c(O)c1CC=C(C)C [4-hydroxyderricin] | – | – | MIC against A. apis [1]: 6.25 µg/mL (≈ 18.5 µM) |
| – | C=CCC1(C(=O)OCC)CCC2(C)OOC1(C)O2 (centres unmarked) [Compound 1, Ethyl-2-allyl-1,5-dimethyl-6,7,8-trioxabicyclo[3.2.1]octane-2-carboxylate] | 94 | 4 ± 0.2 (≈ 15.6 µM) | – |
| 130 to 131 | CC12OOC(C)(OO1)C2C12CC3CC(CC(C3)C1)C2 (centres unmarked) [Compound 6, 7-(Adamantan-1-yl)-1,4-dimethyl-2,3,5,6-tetraoxabicyclo[2.2.1]heptane] | 94 | 1.6 ± 0.1 (≈ 6.01 µM) | – |
| 89 to 90 | COc1ccc(C23OOC4(C)OC(C)(CCC42)O3)cc1 (centres unmarked) [Compound 7, 3-(4-Methoxyphenyl)-6,7a-dimethyltetrahydro-3H,4H-3,6-epoxy[1,2]dioxolo[3,4-b]pyran] | 53 | – | – |
| 43 to 44 | C=CCC12CCC3(C)OC1(C)OOC2(C)O3 [Compound 8, 3a-Allyl-3,6,7a-trimethyltetrahydro-3H,4H-3,6-epoxy[1,2]-dioxolo[3,4-b]pyran] | 25 | – | – |
| – | CO/N=C(/C(=O)OC)c1ccccc1COc1ccccc1C [Kresoxim-methyl 10, Kresoxim-methyl] | < 100 | < 1 | Mycelium Growth Inhibition (I), % [2]: 88%; Mycelium Growth Inhibition (I), % ([2]; listed as Kresoxim-methyl): did not completely inhibit |
| – | CCCCCC(=O)O[C@H]1C(=O)c2c(O)cc(O)cc2O[C@@H]1c1ccccc1 [Pinobanksin-3-hexanoate] | – | – | IC50 [3]: 23 ± 2 µM |
| – | CC(C)(C)C(=O)C(Oc1ccc(Cl)cc1)n1cncn1 (centres unmarked) [Triadimefon 9, Triadimefon] | < 100 | 7.1 ± 0.8 (≈ 24.2 µM) | Mycelium Growth Inhibition (I), % [2]: 91% |
| – | CC1COC(Cn2cncn2)(c2ccc(Oc3ccc(Cl)cc3)cc2Cl)O1 (centres unmarked) [difenoconazole] | – | – | Bumblebee mortality after consumption of syrup with commercial fungicide [4]: had not increased; Ability of bumblebees to fly in the contact action test [5]: did not affect the ability to fly; Decrease of the ability of bumblebees to fly after consumption of sugar syrup [5]: 1.4 times; Bumblebee mortality in contact with commercial fungicide [6]: had not increased |
| – | CCCC(Cn1cncn1)c1ccc(Cl)cc1Cl (centres unmarked) [penconazole] | – | – | Bumblebee mortality after consumption of syrup with commercial fungicide [4]: had not increased; Ability of bumblebees to fly in the contact action test [5]: did not affect the ability to fly; Decrease of the ability of bumblebees to fly after consumption of sugar syrup [5]: 1.3 times; Bumblebee mortality in contact with commercial fungicide [6]: had not increased |
